Tests used:
[1] = Sorafenib plasma pharmacokinetics; format: in vivo, human; details: for sorafenib exposure (AUC0–24) on day 28, patients on vs not on EIAEDs: day 28 of cycle 1, P = 0.0431; for AUC(0-t): AUC0–8 (mean)
[2] = Phase 2 trial toxicity graded according to NCI CTC version 2
[3] = cited from earlier work
[4] = Temozolomide exposure, continuous daily dosing compared to standard 5-day dosing; format: in vivo, human; details: 50 mg/m2/day continuous compared to 150–200 mg/m2/day for 5 days each month

Compound	sorafenib exposure on day 1, patients on vs not on EIAEDs ([1]; day 1 of cycle 1)	sorafenib exposure (AUC0–24) on day 28, patients on vs not on EIAEDs [1]	sorafenib exposure (AUC0–24) on day 28, patients on vs not on EIAEDs ([1]; listed as sorafenib)	AUC(0-t) ([1]; human, plasma, oral, 400 mg, patients not on EIAEDs, day 1, n = 5 per group) [ng·h/mL]	AUC(0-t) ([1]; human, plasma, oral, 400 mg, patients not on EIAEDs, day 28, n = 5 per group) [ng·h/mL]	AUC ([1]; human, plasma, oral, 400 mg, AUC(24) (mean), Non-EIAED patients, day 28 of cycle 1, plasma) [ng·h/mL]	Cmax ([1]; human, plasma, oral, 400 mg, C max (mean), Non-EIAED patients, day 28 of cycle 1, plasma) [ng/mL]	difference in mean AUC0–8, day 28 vs day 1 ([1]; patients not on EIAEDs) [fold]	sorafenib AUC0–24 day 28 compared to day 1 ([1]; patients not on EIAEDs, P = 0.0117)	sorafenib AUC0–24 day 28 compared to day 1 ([1]; patients on EIAEDs, P = 0.7266)	Amylase/lipase, dose modification or discontinuation of sorafenib ([2]; n = 32)	Palmer-Plantar Erythrodysesthesia, dose modification or discontinuation of sorafenib ([2]; n = 32)	reduction in sorafenib exposure ([3]; co-administration of rifampin, a CYP3A4 and UGT 1A9 inducer) [%]	effect of ketoconazole co-administration on sorafenib ([3]; ketoconazole (CYP3A inhibitor) with low-dose sorafenib 50 mg/day)	sorafenib exposures, patients on vs not on EIAEDs ([3]; phase I dose escalation study, malignant glioma patients, day one of cycle one)	increase of sorafenib exposures over seven days (to steady-state) ([3]; prior pharmacokinetic studies)	greater temozolomide exposure with continuous daily dosing [4]	patients requiring dose modification or discontinuation of daily temozolomide ([2]; 32 patients)
CNC(=O)c1cc(Oc2ccc(NC(=O)Nc3ccc(Cl)c(C(F)(F)F)c3)cc2)ccn1 [Sorafenib]	comparable	significantly lower on day 28 for patients on EIAEDs	significantly higher on day 28 for patients not on EIAEDs	11100	52100	129000	8120	~5	significantly higher	did not differ significantly	4 (13) number of patients (percent of	3 (9) number of patients (percent of	37	did not result in unexpected adverse events or evidence of altered sorafenib pharmacokinetics	comparable	3–4 fold		
Cn1nnc2c(C(N)=O)ncn2c1=O [temozolomide, Temozolomide]																	1.4–1.9 fold	none of the patients

Source: paper PMC3102498 (Journal of neuro-oncology, 2010)
